Holding throughout (format): binding
Test [1] addresses T1, HeLa cell extract proteins (Homo sapiens, UniProt Q9Y5M8).
T1 construct: endogenous in cells; host or cells: HeLa cell extract
T1 sequence (Q9Y5M8 1-271): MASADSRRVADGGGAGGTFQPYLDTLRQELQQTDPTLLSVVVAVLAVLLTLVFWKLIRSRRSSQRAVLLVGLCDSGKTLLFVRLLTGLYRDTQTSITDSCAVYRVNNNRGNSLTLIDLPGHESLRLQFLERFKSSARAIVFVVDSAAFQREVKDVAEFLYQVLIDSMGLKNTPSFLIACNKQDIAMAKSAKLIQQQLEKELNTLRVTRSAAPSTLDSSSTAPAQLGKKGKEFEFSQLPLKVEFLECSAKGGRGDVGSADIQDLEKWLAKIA
Particulars: captured protein SRPRB; HeLa.

Test [2] concerns the target T2, HeLa cell extract proteins (Homo sapiens, UniProt P41250).
T2 construct: endogenous in cells; host or cells: HeLa cell extract
T2 sequence (P41250 37-739): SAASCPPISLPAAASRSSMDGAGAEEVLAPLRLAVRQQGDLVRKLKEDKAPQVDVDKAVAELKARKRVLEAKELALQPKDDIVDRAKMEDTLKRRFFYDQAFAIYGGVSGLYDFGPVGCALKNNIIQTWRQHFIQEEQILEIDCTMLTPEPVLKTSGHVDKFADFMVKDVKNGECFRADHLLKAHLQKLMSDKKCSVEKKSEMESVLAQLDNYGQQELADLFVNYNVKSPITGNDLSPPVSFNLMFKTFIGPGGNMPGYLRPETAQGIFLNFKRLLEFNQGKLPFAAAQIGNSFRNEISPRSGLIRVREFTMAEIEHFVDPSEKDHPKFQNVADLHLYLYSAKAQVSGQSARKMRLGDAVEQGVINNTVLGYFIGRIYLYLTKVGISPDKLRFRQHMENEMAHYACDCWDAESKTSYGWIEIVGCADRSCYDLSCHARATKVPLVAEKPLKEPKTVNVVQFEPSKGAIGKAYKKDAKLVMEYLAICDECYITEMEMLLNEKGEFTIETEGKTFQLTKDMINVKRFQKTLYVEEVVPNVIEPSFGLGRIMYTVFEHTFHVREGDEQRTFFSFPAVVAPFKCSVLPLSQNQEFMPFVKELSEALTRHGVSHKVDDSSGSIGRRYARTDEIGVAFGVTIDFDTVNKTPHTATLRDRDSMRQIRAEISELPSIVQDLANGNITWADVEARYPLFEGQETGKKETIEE
Particulars: protein GARS; HeLa.

In test [3] the target is T3, HeLa cell extract proteins (Homo sapiens, UniProt Q15020).
T3 construct: endogenous in cells; host or cells: HeLa cell extract
T3 sequence (Q15020 1-963): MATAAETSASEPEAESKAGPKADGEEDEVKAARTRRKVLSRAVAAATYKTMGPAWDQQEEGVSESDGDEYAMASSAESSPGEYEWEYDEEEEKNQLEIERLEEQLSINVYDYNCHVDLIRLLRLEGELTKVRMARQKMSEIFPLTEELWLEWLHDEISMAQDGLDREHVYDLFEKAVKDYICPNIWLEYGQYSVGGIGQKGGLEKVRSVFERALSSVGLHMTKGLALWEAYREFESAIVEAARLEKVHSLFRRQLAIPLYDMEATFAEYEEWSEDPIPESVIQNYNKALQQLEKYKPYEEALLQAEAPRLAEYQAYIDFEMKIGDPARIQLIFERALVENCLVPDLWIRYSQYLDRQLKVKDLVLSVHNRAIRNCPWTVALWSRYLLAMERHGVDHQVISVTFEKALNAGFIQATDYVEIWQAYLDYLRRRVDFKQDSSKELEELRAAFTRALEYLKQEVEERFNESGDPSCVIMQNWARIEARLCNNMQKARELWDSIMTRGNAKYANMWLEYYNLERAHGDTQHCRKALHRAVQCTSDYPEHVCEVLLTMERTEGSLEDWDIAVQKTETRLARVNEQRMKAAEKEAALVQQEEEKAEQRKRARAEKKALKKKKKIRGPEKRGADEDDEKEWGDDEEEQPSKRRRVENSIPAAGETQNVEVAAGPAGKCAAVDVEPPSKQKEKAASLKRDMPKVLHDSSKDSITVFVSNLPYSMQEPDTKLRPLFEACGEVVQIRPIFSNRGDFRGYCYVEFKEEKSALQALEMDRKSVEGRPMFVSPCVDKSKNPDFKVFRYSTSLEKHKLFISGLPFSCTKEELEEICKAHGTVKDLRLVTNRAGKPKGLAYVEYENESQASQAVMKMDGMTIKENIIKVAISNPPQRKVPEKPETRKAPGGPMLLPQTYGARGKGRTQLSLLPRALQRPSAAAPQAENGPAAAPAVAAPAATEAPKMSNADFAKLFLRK

Test [4] deals with T4, HeLa cell extract proteins (Homo sapiens, UniProt P04279).
T4 construct: endogenous in cells; host or cells: HeLa cell extract
T4 sequence (P04279 24-462): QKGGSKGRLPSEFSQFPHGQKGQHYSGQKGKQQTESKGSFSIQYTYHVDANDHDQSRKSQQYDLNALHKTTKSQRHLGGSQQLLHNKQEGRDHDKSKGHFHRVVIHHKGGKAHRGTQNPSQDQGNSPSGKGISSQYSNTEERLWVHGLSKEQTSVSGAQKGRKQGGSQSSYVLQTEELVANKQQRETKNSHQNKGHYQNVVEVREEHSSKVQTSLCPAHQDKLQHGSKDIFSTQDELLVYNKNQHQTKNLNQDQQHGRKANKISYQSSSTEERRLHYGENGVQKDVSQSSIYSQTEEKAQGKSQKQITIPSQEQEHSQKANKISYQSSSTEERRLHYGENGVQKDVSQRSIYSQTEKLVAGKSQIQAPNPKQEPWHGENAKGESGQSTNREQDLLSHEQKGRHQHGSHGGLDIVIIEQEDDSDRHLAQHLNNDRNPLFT

Test [5] addresses T5, HeLa cell extract proteins (Homo sapiens, UniProt Q6L8Q7).
T5 construct: endogenous in cells; host or cells: HeLa cell extract
T5 sequence (Q6L8Q7 43-609): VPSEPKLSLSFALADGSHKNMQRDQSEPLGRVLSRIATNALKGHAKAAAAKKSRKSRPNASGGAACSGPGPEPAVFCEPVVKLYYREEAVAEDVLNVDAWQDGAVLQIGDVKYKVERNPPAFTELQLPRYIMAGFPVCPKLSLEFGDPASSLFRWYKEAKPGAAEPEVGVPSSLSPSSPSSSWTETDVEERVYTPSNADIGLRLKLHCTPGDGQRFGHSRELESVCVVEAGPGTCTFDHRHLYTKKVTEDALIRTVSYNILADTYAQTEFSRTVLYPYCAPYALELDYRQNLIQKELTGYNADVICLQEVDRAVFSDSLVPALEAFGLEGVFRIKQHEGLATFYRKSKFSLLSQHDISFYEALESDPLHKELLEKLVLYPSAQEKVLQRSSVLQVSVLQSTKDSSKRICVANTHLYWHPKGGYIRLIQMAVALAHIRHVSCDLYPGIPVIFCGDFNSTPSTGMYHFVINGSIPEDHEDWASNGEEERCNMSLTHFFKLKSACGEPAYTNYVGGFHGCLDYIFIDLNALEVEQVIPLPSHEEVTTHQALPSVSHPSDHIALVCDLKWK

Read-outs that look alike come from different tables or passages of the source.

As to `CCCCCCOc1cccc(Cc2cnc(N)nc2N)c1` [compound 2], the “fold changes relative to vehicle control” value in test [1] stood at 1.08; in test [2], 1.74.
With `NCCOCCOCC(=O)Nc1nc2ncc(CNc3ccc(C(=O)NC(CCC(=O)O)C(=O)O)cc3)nc2c(=O)[nH]1` (stereo not drawn) [compound 6], the “fold changes relative to vehicle control” value in test [3] (protein SART3, HeLa) is on record as 0.89; in test [4] (protein SEMG1, HeLa) it was 0.16; in test [5] (HeLa, protein PDE12) it was 1.1.
In the case of `CCCCCCOc1ccc(Cc2cnc(N)nc2N)cc1` [compound 1], the entries for the “fold changes relative to vehicle control” value in test [1] and in test [2] were 1.12 and 1.14, respectively.
Consider `Nc1nc2c(c(=O)[nH]1)N(C=O)C(CNc1ccc(C(=O)N[C@@H](CCC(=O)O)C(=O)O)cc1)CN2` (stereo partly drawn) [LEU, leucovorin], for which the “fold changes relative to vehicle control” value in test [3] (protein SART3, HeLa) is reported as 0.82; in test [4] (protein SEMG1, HeLa) it was 0.13; in test [5] (HeLa, protein PDE12), 0.93.
Regarding `NCCCNc1ccc(C(=O)NC(CCC(=O)O)C(=O)O)cc1` (stereo not drawn) [compound 7], the “fold changes relative to vehicle control” value came to 0.94 in test [3] (protein SART3, HeLa); 0.09 in test [4] (protein SEMG1, HeLa); 1.34 in test [5] (HeLa, protein PDE12).
In the case of `Nc1nc2[nH]cc(CCc3ccc(C(=O)N[C@@H](CCC(=O)O)C(=O)O)cc3)c2c(=O)[nH]1` [PTX, pemetrexed], the figures for the “fold changes relative to vehicle control” value in test [3], in test [4] and in test [5] were 0.84, 0.14 and 1.04, respectively.
On to `Nc1nc2cccc(-c3ccccc3)c2n1Cc1ccc(Cl)c(Cl)c1` [compound 3], for which the “fold changes relative to vehicle control” value in test [1] amounted to 0.91; in test [2], 0.93.

For the origin of these results see publication PMC6199744, “Development of Chemical Proteomics for the Folateome and Analysis of the Kinetoplastid Folateome” (ACS Infectious Diseases, 2018).
